Values joined by “and” are separate entries in the source; they are usually repeats but may differ in a detail not shown here. Equal values may be shown once.
Experiments:
[1] = cited from earlier work
[2] = Storage stability of levothyroxine in DMSO formulations; type: physicochemical; settings: 5 mg/mL in DMSO without ionization stabilizing excipient; even in refrigeration
Description: These formulation studies are described in detail in U.S. Appl. No. 63/380,090, entitled “Stable Levothyroxine Formulations in Aprotic Polar Solvents,” filed on even day herewith, which is incorporated herein by reference in its entirety. […] The overall moisture content of the formulation was ˜5% when prepared using 1.0 N H2SO4. The moisture content of this formulation was due almost entirely to the added sulfuric acid (with a minor contribution from the trehalose dihydrate), which at 26 mM (from a 1.0 N (0.5 M) stock solution) results in a moisture content ˜5% (w/w). When prepared using concentrated acid (e.g., 10 N), the overall moisture content of the formulation could be reduced to about ˜1% without any significant impact on storage stability. Other exemplary formulations were prepared at a concentration of 5 mg/mL levothyroxine in DMSO that had been first acidified with about 13-15 mM sulfuric acid. These formulations were then used in levothyroxine pharmacokinetic pre-clinical studies using laboratory animals.

SMILES	solubility in DMSO ([1]; DMSO)	solubility in aqueous/physiological environments ([1]; aqueous/physiological)	stability when solubilized directly in DMSO [2]
CCOc1ccccc1OCCN[C@H](C)Cc1ccc(OC)c(S(N)(=O)=O)c1 [Tamsulosin, tamsulosin]	100 mM and > 40 mg/ml	~10 mM and 4 mg/ml	
N[C@@H](Cc1cc(I)c(Oc2cc(I)c(O)c(I)c2)c(I)c1)C(=O)O [levothyroxine]			discolor and form degradation products within one day of storage

— patent US20240148678A1, “SUSTAINED RELEASE INJECTABLE THERAPEUTIC FORMULATIONS USING APROTIC POLAR SOLVENTS” (Xeris Pharmaceuticals, Inc., priority 2022, published 2024)
